Experimental data: US8188149B2, “Use of R(+)-N-propargy1-1-aminoindan to treat or prevent hearing loss” (Teva Pharmaceutical Industries, Ltd., priority 2007, dated 2012)
Where two headings read alike, the source gives them in different places.

Key:
[1] = test system: dopamine release from the guinea pig cochlea preparation
Protocol: The bulla tympani of a male guinea pig (weighing 150-350 g) was opened. The bony capsule of the cochlea was removed under stereomicroscopic guidance and the stria vascularis was stripped and the cochlea was fractured at the basis of the modiolus. The preparation contained the ganglion spirale, the afferent auditory fibers, the axons and axon terminals of the efferent bundles and both the inner and outer hair cells. All experiments were carried out in a perilimph-like solution, which contained […], 3.5 mM KCl, 1 mM CaCl2, 1 mM MgCl2, 2.75 mM HEPES and 2.25 mM Tris-OH at the temperature of 37° C. and pH 7.4. The osmolality was set by D-glucose and continuously saturated by 100% O2.
The cochleae were incubated with 0.2 μM [3H]dopamine (Amersham, UK, spec. act.: 31.0 Ci/mmol, 6 μCi in 1 ml) for 35 min. Each cochlea was then placed in a microvolume plexi chamber and superfused at 3 ml/min with perilymph-like solution. After 1 hour pre-perfusion the outflow was collected into 3 min-fractions. The released activity was determined by assaying […] of each sample with liquid scintillation spectrometry (Packard Tri-Carb 1900TR). After collecting samples for 57 minutes (19 fractions) each cochlea was transferred from the microchambers to 500 μl of 10% trichloroacetic acid for one day and 100 μl was assayed for tissue radioactivity. […] Electrical field stimulation was applied for one fraction period (3 min, 360 pulses) at 60 V, 2 Hz and 0.5 ms duration at the 3rd and 13th fractions. The pulses were delivered by a Grass S88 stimulator (West Warwick, USA) through platinum electrodes at the top and bottom of the tissue chamber.
To best describe the release of dopamine during one collecting period, the fractional release (FR) of the tritium-outflow was determined as the percentage of total radioactivity present in the tissue at the time of sample collection. The fractional release evoked by field stimulations (S1 and S2) was calculated by the area-under-the-curve, i.e., by subtracting the mean of the basal release from the total fractional release during the electrical stimulation (Halmos G, Gáborján A, Lendvai B, Répássy G, Z Szabó L, Vizi E S, (2000) Veratridine-evoked release of dopamine from guinea pig isolated cochlea. Hear Res 144: 89-96, Halmos G, Lendvai B, Gáborján A, Baranyi M, Z Szabó L, Csokonai Vitéz L, (2002) Simultaneous measurement of glutamate and dopamine release from isolated guinea pig cochlea. Neurochem Int 40: 243-248). The effects of drugs on the field stimulation-evoked [^3H]dopamine release were expressed by the calculated ratio of FRS2 over FRS1, in the presence and in the absence of the drug, respectively. The effect of drugs on the resting outflow of tritium was determined as the ratio of the sum of the two highest consecutive resting FR values in the presence of the drug and before the drug reached the cochleae (FRR2/FRR1). Data are expressed as the means±S.E.M. ANOVA was used for statistical analysis. Tukey post-hoc test was applied to determine the significance of pair wise comparisons.

[2] = test system: neomycin-induced hearing loss; settings: mice
Protocol: Left ears were left for vehicle control (NaCl injection). […] Click stimulations to the ear including various frequencies were used to evoke the auditory response in the brainstem that was measured by multiple electrodes placed on the head of the animal.

[3] = test system: neomycin-induced hearing loss; settings: guinea pigs
Protocol: Guinea pigs weighing 250-300 g were used in all experiments. All interventions (including ABR measurements and intratympanic treatments) are performed under general anesthesia using i.p. injection of a cocktail of Ketamine and Xylazine.
A loudspeaker is placed in each ear and the ABR responses were detected by four surface electrodes. These electrodes are placed two in the mastoid region and one in vertex as positive and fourth electrode was placed on forehead as the ground electrode. Calibrated acoustic signals are obtained to evoke brainstem response. The visual detection threshold is determined by decrement sound pressure in 5 dB steps. The evoked responses are then filtered and averaged with 500 sweeps using a signal processor. All ABR tests are performed bilaterally and baseline Peak Equivalent Sound Pressure Levels (PESPLs) are obtained in terms of decibel (dB). All animals undergo baseline hearing test (ABR) before any kind of treatment in order to rule out previous hearing loss. Control ABR threshold measurements are compared to pretreatment values. Auditory threshold shift is subjected to statistical analysis, statistical significance is determined.
A fine needle is used for myringotomy and drugs are delivered through the same needle. The whole middle ear is filled until the fluid can be seen in the external auditory canal. […] Concentration is calculated using this volume. […]

## C#CCN[C@@H]1CCc2ccccc21 [Rasagiline, R(+)-N-propargyl-1-aminoindan]
[1]; 100 μM Rasagiline
  field stimulation-evoked dopamine release (FRS2/FRS1): increase was significant
[1]; 100 μM, 3-21 min perfusion
  evoked dopamine release, all timing groups vs control: significant enhancement
[1]; 100 μM, longest duration, 21 minutes prior to stimulation
  resting release of dopamine (FRR2/FRR1): failed to induce significant differences
[1]; 300 μM Rasagiline
  field stimulation-evoked dopamine release (FRS2/FRS1): increase was significant
[1]; 1-300 μM, FIG. 2
  effect on dopamine release, concentration dependence: concentration dependent
[1]; higher doses (of 1, 10, 100, 300 μM), added 15 min prior to second field stimulation
  cochlear DA release: elevate
[1]; low concentration (of 1, 10, 100, 300 μM), added 15 min prior to second field stimulation
  cochlear dopamine release: did not change
[2]; 0.5 mg Rasagiline intratympanically together with neomycine
  hearing threshold compared to threshold prior to neomycine treatment: remained unchanged
[2]; intraperitoneally 50 mg/kg daily, day of neomycine treatment and next three days
  protection against ototoxic effect of neomycine: could not prevent
[3]; Rasagiline intratympanically together with neomycine
  hearing threshold compared to threshold prior to neomycine treatment: remains unchanged
[3]; intraperitoneally on day of neomycine treatment and next three days
  protection against ototoxic effect of neomycine: can not prevent
